The source of these data is PubChem BioAssay (NCI).

The structures appear in SMILES notation.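 Grown in 96-well plates, cells were treated for 48 hours with each compound at five concentrations. Insufficient inhibition: endpoint recorded as highest concentration tested. Definition used: TGI = concentration required for complete inhibition of growth.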 Some results are limits rather than exact numbers.

Test systems include UACC-62 melanoma; NCI-H23 lung; UACC-257 melanoma; OVCAR-8 ovarian; OVCAR-3 ovarian; HT29 colon; SF-268 CNS; K-562 leukemia; NCI-H522 lung.
What all share (assay): inhibition of tumour cell growth, NCI panel, 48 h

Turning to `COC(=O)C(C/C=C(\C)c1ccc(Cl)cc1)C(C)=O` (stereo unspecified), the TGI with UACC-62 melanoma is greater than 100 µM; with NCI-H23 lung, greater than 100 µM; with UACC-257 melanoma it was greater than 71.3 µM; with OVCAR-8 ovarian, greater than 100 µM; in the assay with OVCAR-3 ovarian it was greater than 100 µM; with HT29 colon, greater than 77.1 µM. The TGI with SF-268 CNS is greater than 100 µM; in the assay on K-562 leukemia, greater than 100 µM; in the assay on NCI-H522 lung, 92.3 µM.

With `COC(=O)C1(C(=O)OC)N=C(C)OC1/C=C/c1ccccc1` (stereo unspecified), the TGI in the assay with UACC-62 melanoma, in the assay with NCI-H23 lung, in the assay with UACC-257 melanoma, in the assay on OVCAR-8 ovarian, with OVCAR-3 ovarian and with K-562 leukemia was greater than 100 µM in each case.

As to `Cc1c2ccncc2c(C)c2c1[nH]c1ccc(OCC(F)(F)F)cc12`, the TGI amounted to 3.14 µM with NCI-H23 lung; 3.42 µM with UACC-257 melanoma; 2.59 µM in the assay with OVCAR-8 ovarian; 3.29 µM with OVCAR-3 ovarian; 3.11 µM with HT29 colon; 3.06 µM with SF-268 CNS. The TGI in the assay on K-562 leukemia was found to be 3.91 µM; with NCI-H522 lung, 3.22 µM.

With `COP(=O)(OC)C(O)CC(C)C` (stereo unspecified), the TGI in the assay on UACC-62 melanoma, in the assay on UACC-257 melanoma, in the assay with OVCAR-3 ovarian, in the assay with HT29 colon and with K-562 leukemia was greater than 100 µM each time.

Regarding `C/C(=N\Nc1nc2cccnc2s1)c1ccccn1`, the figures for the TGI in the assay on NCI-H23 lung, in the assay with OVCAR-8 ovarian and in the assay with K-562 leukemia were 0.949 µM, 0.0147 µM and greater than 100 µM, respectively.

For the compound `O=C(NCCNCCCNC(=O)c1cc(-c2ccccc2)nc2ccccc12)c1cccc(OCc2ccccc2)c1OCc1ccccc1`, the TGI in the assay with UACC-62 melanoma was 3.61 µM; with NCI-H23 lung, 3.35 µM; with UACC-257 melanoma it was 3.28 µM; in the assay on OVCAR-8 ovarian it was 3.15 µM; in the assay with OVCAR-3 ovarian it was 3.36 µM; in the assay on HT29 colon, 2.98 µM. For the same compound, the TGI with K-562 leukemia turned out to be 3.48 µM; with NCI-H522 lung it was 3.12 µM.

As to `Brc1ccc2c(c1)-c1nc3nc4c(cc3cc1CC2)CCc1ccc(Br)cc1-4`, the TGI in the assay with NCI-H23 lung, with UACC-257 melanoma, in the assay with OVCAR-8 ovarian, with OVCAR-3 ovarian, with SF-268 CNS and in the assay on K-562 leukemia was greater than 100 µM in each case. Moreover, the TGI with NCI-H522 lung is greater than 100 µM.

As for `COc1ccc(C(=O)C(c2ccc(OCc3ccccc3)cc2)c2ccc(OCc3ccccc3)cc2)cc1`, the TGI with UACC-62 melanoma, with NCI-H23 lung, in the assay on OVCAR-8 ovarian, in the assay on OVCAR-3 ovarian, in the assay on HT29 colon and in the assay with SF-268 CNS was greater than 100 µM throughout. Further, the TGI with K-562 leukemia and in the assay on NCI-H522 lung was greater than 100 µM throughout.

As to `O=C(OCc1ccccc1)N(CCCCN(CCCNCc1ccccc1)C(=O)OCc1ccccc1)CCCNCc1ccccc1`, the TGI worked out at 3.19 µM with UACC-62 melanoma; 3.4 µM in the assay with NCI-H23 lung; 1.92 µM in the assay with UACC-257 melanoma; 2.79 µM with OVCAR-8 ovarian; 0.663 µM in the assay on HT29 colon.

`O=C(Nc1cccc2c1[nH]c1c(-c3ccccc3)nccc12)c1ccccc1[N+](=O)[O-]`: the TGI in the assay on NCI-H23 lung, in the assay with UACC-257 melanoma, in the assay on OVCAR-8 ovarian, with HT29 colon, in the assay with SF-268 CNS and in the assay on K-562 leukemia was greater than 100 µM each time.

Consider `COC(=O)/C=C/C1(O)C=CC(=O)C=C1`, for which the TGI in the assay on UACC-62 melanoma is 7.43 µM; with NCI-H23 lung it was 17.5 µM; in the assay on UACC-257 melanoma, 13.6 µM; with OVCAR-8 ovarian, greater than 100 µM; with OVCAR-3 ovarian, 4.93 µM; in the assay with SF-268 CNS, 5.84 µM. Besides, the TGI was greater than 100 µM in the assay on K-562 leukemia and 0.598 µM in the assay on NCI-H522 lung.

`C=CCOC(=O)C1=C(CCC[C@@H](C)O[Si](C)(C)C(C)(C)C)N=C(N)N2[C@H](CCO)CC[C@@H]12`: the TGI is 33 µM in the assay on UACC-62 melanoma; 32.4 µM with NCI-H23 lung; 38.7 µM in the assay on UACC-257 melanoma; 23.5 µM with OVCAR-3 ovarian; 31 µM in the assay with SF-268 CNS; 21.5 µM in the assay with K-562 leukemia. The same compound came in with a TGI with NCI-H522 lung of 25.2 µM.

Take `O=C(O)C12CCCCC1CCCC2` (stereo unspecified): the TGI in the assay with UACC-62 melanoma, in the assay with NCI-H23 lung, with OVCAR-8 ovarian, in the assay with OVCAR-3 ovarian, in the assay with HT29 colon and in the assay with SF-268 CNS was greater than 100 µM each time. Further, the TGI in the assay with K-562 leukemia and with NCI-H522 lung was greater than 100 µM in each case.

As for `COc1ccc(C2C3CCc4ccccc4C3=NN2S(=O)(=O)c2ccc(/C=C/C(=O)O)cc2)cc1` (stereo unspecified), the TGI was determined as 23.8 µM in the assay on UACC-62 melanoma; 1.87 µM in the assay on NCI-H23 lung; 92.5 µM with OVCAR-8 ovarian; 86.3 µM in the assay with OVCAR-3 ovarian; 13.6 µM in the assay on HT29 colon; 71.2 µM in the assay with SF-268 CNS. Moreover, the values for the TGI with K-562 leukemia and with NCI-H522 lung were 15.7 µM and 7.04 µM, respectively.
